Laboratory results reported in PMC10045663, “Synthesis, In Vitro Biological Evaluation of Antiproliferative and Neuroprotective Effects and In Silico Studies of Novel 16E-Arylidene-5α,6α-epoxyepiandrosterone Derivatives” (Biomedicines, 2023).
Entries after “also recorded” stand apart in the source; their conditions may differ.

Tests used:
[1] = test system: T47-D cells (breast cancer); set-up: method as in PMID 23635011; details: MTT assay, read-out: IC50 against T47-D cells; cited from earlier work
[2] = test system: MCF-7 cells (estrogen-responsive breast cancer cells); assay: MTT cell proliferation assay, MCF-7 cells; assay type: cell-based; details: MTT, 72 h, tumoral cells; read-out: Estimated IC50, MCF-7
Procedure: (§1) LNCaP, PC-3, MCF-7, PNT1A, N27, and NHDF cells were obtained from the American Type Culture Collection (ATCC; Manassas, VA, USA) and were cultured in 75 cm^2 culture flasks at 37 °C in a humidified air incubator with 5% CO2. LNCaP, PC-3, PNT1A, and N27 cells, respectively, were cultured in RPMI 1640 medium (Sigma-Aldrich, Inc. St. Louis, MO, USA) with 10% fetal bovine serum (FBS; Sigma-Aldrich, Inc. St. Louis, MO, USA) and 1% of the antibiotic mixture of 10,000 U/mL penicillin G and […] streptomycin (Sp, Sigma-Aldrich, Inc. St. Louis, MO, USA). MCF-7 cells were cultured in DMEM medium (Sigma-Aldrich, Inc. St. Louis, MO, USA) supplemented with 10% fetal bovine serum (FBS; Sigma-Aldrich, Inc. St. Louis, MO, USA) and 1% antibiotic/antimycotic (10,000 U/mL penicillin G, […] streptomycin, and 25 µg/mL amphotericin B: Ab, Sigma-Aldrich, Inc. St. Louis, MO, USA). Finally, NHDF cells were cultured in RPMI 1640 medium supplemented with 10% FBS, 2 mM L-glutamine, 10 mM HEPES, 1 mM sodium pyruvate, and 1% of the antibiotic/antimycotic Ab, and these cells were used in passages 10th to 14th. For all cell types, the medium was renewed every 2 days until cells nearly reached the confluence state. When cells reach approximately 90–95% confluence, they are gently detached by trypsinization (trypsin-EDTA solution: 0.125 g/L of trypsin and 0.02 g/L of EDTA). Before each experiment, viable cells were counted in a Neubauer chamber by a trypan-blue exclusion assay and adequately diluted in the appropriate complete cell culture medium.
(§2) All tested compounds were dissolved in dimethyl sulfoxide (DMSO; Sigma-Aldrich, Inc. St. Louis, MO, USA) at a concentration of 10 mM and stored at 4 °C. From the mother-solutions, the diluted solutions of the compounds, in different concentrations, were prepared in the respective complete culture medium before each experiment.
(§3) After reaching a confluence state, cells were trypsinized and counted by the trypan-blue exclusion assay and then seeded with an initial density of 2 × 10^4 cells/mL in 96-well culture plates (Nunc, Apogent, Denmark) and left to adhere and grow for 48 h. Subsequently, the medium was removed, and the cells were treated with compound solutions (10 and 50 µM for preliminary studies and 0.01, 0.1, 1, 10, 50, and 100 µM for concentration-response studies) in complete culture medium for 72 h. 5-Fluorouracil (5-FU) was used as a positive control, and untreated cells were used as the negative control. Compounds leading to cell proliferation relative to control clearly below 50%, at 10 µM, or clearly below 25%, at 50 µM, in the screening studies were selected to concentration-response studies in tumoral cell lines. Each experiment was performed in quadruplicate and independently at least two times. The in vitro antiproliferative effects were evaluated by the MTT assay (Sigma-Aldrich, Inc. St. Louis, MO, USA). After the incubation period, the medium was removed, and 100 µL of phosphate buffer saline (PBS, NaCl 137 mM; KCl 2.7 mM; Na2HPO4 10 mM; and KH2PO4 1.8 mM in deionized water with a pH adjusted to 7.4) were used to wash the cells. Then, 100 µL of the MTT solution (5 mg/mL) was prepared in the appropriate serum-free medium and added to each well, followed by incubation for 4 h at 37 °C. Hereafter, the MTT containing medium was removed, and the formazan crystals were dissolved in DMSO. Then, the absorbance was measured at 570 nm using a xMarkTM microplate spectrophotometer from BIO-RAD Laboratories. Cell viability values were expressed as percentages relative to the negative control.

[3] = test system: N27 (rat dopaminergic neuronal cells); assay: MTT cell proliferation assay, N27 cells; assay type: cell-based; details: 72 h, non-tumoral cells, read-out: Estimated IC50, N27
Procedure: as §1, §2, §3

N27 cells [4] = assay: N27 cell viability after 24 h (MTT), substance alone; assay type: cell-based, rat; details: for effect on N27 cell viability: 10 µM alone; for fold-increase in cell viability compared to 10 µM of the respective compound / fold-increase in cell viability compared to the control: 50 µM alone
Procedure: The immortalized rat mesencephalic dopaminergic cell line (N27 cells; a kind gift from Dr. Yoon-Seong Kim, Burnett School of Biomedical Sciences, University of Central Florida) was grown in Roswell Park Memorial Institute (RPMI) 1640 medium (Sigma-Aldrich) containing 2 g/L sodium bicarbonate, 10% fetal bovine serum (FBS; Millipore), and 1 mL/L of penicillin/streptomycin (GIBCO) in a humidified atmosphere of 5% CO2 at 37 °C. Cells were plated at a density of 0.31 × 10^5 cells per cm^2 in 96-well culture plates. […] To assess cell viability, MTT reduction was performed as previously described (Section 2.3) with some modifications. Briefly, after 24 h of cell treatments, 0.5 mg/mL of MTT was added to cells for 4 h at 37 °C. Then, the resultant precipitate was dissolved in 10% SDS and quantified at a wavelength of 570 nm.

[5] = test system: PNT1A (normal prostate cells); assay: MTT cell proliferation assay, PNT1A cells; assay type: cell-based; details: 72 h, non-tumoral cells, read-out: Estimated IC50, PNT1A
Procedure: as §1, §2, §3

N27 cells [6] = assay: Neuroprotection against 6-OHDA-induced toxicity (MTT); assay type: cell-based, rat; details: 24 h; for protection against 6-OHDA-induced neurotoxicity: 10 and 50 µM together with 50 µM 6-OHDA
Procedure: The immortalized rat mesencephalic dopaminergic cell line (N27 cells; a kind gift from Dr. Yoon-Seong Kim, Burnett School of Biomedical Sciences, University of Central Florida) was grown in Roswell Park Memorial Institute (RPMI) 1640 medium (Sigma-Aldrich) containing 2 g/L sodium bicarbonate, 10% fetal bovine serum (FBS; Millipore), and 1 mL/L of penicillin/streptomycin (GIBCO) in a humidified atmosphere of 5% CO2 at 37 °C. Cells were plated at a density of 0.31 × 10^5 cells per cm^2 in 96-well culture plates. In the MTT assay, N27 cells were incubated in the presence of several compounds with 50 μM of 6-OHDA. To assess cell viability, MTT reduction was performed as previously described (Section 2.3) with some modifications. Briefly, after 24 h of cell treatments, 0.5 mg/mL of MTT was added to cells for 4 h at 37 °C. Then, the resultant precipitate was dissolved in 10% SDS and quantified at a wavelength of 570 nm.

[7] = test system: NHDF cells (normal human dermal fibroblasts); assay: MTT cell proliferation assay, NHDF cells; assay type: cell-based; details: 72 h, non-tumoral cells, read-out: Estimated IC50, NHDF
Procedure: as §1, §2, §3

[8] = test system: PC-3 cells (androgen-independent prostatic cancer); assay: MTT cell proliferation assay, PC-3 cells; assay type: cell-based; details: PC-3, 50 µM, 72 h
Procedure: as §1, §2, §3

[9] = test system: all cell lines (NHDF, PNT1A, N27, LNCaP, PC-3, MCF-7); assay: MTT preliminary screening, all cell lines taken together; assay type: cell-based; details: 50 µM, 72 h
Procedure: as §1, §2, §3

[10] = test system: LNCaP cells (androgen-dependent prostatic cancer); assay: MTT cell proliferation assay, LNCaP cells; assay type: cell-based; details: 72 h
Procedure: as §1, §2, §3

In the case of `CC12CCC3C(CC=C4CC(O)CCC43C)C1C/C(=C\c1ccc([N+](=O)[O-])cc1)C2=O` (stereo not drawn) [Compound 4, (E)-16-(4-Nitrobenzylidene)-3-hydroxy-10,13-dimethyl-1,3,4,7,8,9,10,11,12,13,15,16-dodecahydro-2H-cyclopenta[α]phenanthren-17(14H)-one], the IC50 [1] is given as over 100 µM.
For `CC12CCC3C(CC=C4CC(O)CCC43C)C1C/C(=C\c1ccc(Cl)cc1Cl)C2=O` (stereo not drawn) [Compound 9, (E)-16-(2,4-Dichlorobenzylidene)-3-hydroxy-10,13-dimethyl-1,3,4,7,8,9,10,11,12,13,15,16-dodecahydro-2H-cyclopenta[α]phenanthren-17(14H)-one], the IC50 [1] is listed as over 100 µM.
In the case of `CC12CCC3C(CC4OC45CC(O)CCC35C)C1CC(=Cc1ccc([N+](=O)[O-])cc1)C2=O` (stereo not drawn) [Compound 17, (E)-16-(4-Nitrobenzylidene)-3-hydroxy-5α ,6α -epoxy-10,13-dimethyl-1,3,4,7,8,9,10,11,12,13,15,16-dodecahydro-2H-cyclopenta[α ]phenanthren-17(14H)-one], the IC50 [2] is reported as 20.8 µM, the IC50 [3] is reported as over 100 µM and the “effect on N27 cell viability” value (N27 cells [4]) is reported as “did not affect cell viability”. The “fold-increase in cell viability compared to 10 µM of the respective compound” value (N27 cells [4]) was 1.59 fold, the “fold-increase in cell viability compared to the control” value (N27 cells [4]) was 1.53 fold and the IC50 [5] was over 100 µM. For the same molecule, the “protection against 6-OHDA-induced neurotoxicity” value (“protection” for short) (N27 cells [6]) was “did not counteract; also recorded: no significant neuroprotection” and the IC50 [7] was 32.3 µM.
In the case of `C[C@]12CC[C@H]3[C@@H](C[C@@H]4O[C@@]45C[C@@H](O)CC[C@]35C)[C@@H]1C/C(=C\c1ccco1)C2=O` [Compound 20, (E)-16-(Furan-2-ylmethylene)-3-hydroxy-5α ,6α -epoxy-10,13-dimethyl-1,3,4,7,8,9,10,11,12,13,15,16-dodecahydro-2H-cyclopenta[α ]phenanthren-17(14H)-one], the “decrease on cell proliferation relative to the control” value [8] is reported as “higher than 75%”, the IC50 [3] is reported as 64.5 µM and the “effect on N27 cell viability” value (N27 cells [4]) is reported as “did not affect cell viability”. For the same molecule, the IC50 [5] was 56.6 µM, the “protection” value (N27 cells [6]) was “did not counteract; also recorded: no significant neuroprotection” and the IC50 [7] was 50 µM.
`CC12CCC3C(CC4OC45CC(O)CCC35C)C1CC(=Cc1ccc(Cl)o1)C2=O` (stereo not drawn) [Compound 27, (E)-16-[(5-Chlorofuran-2-yl)methylene]-3-hydroxy-5α ,6α -epoxy-10,13-dimethyl-1,3,4,7,8,9,10,11,12,13,15,16-dodecahydro-2H-cyclopenta[α ]phenanthren-17(14H)-one] gave an IC50 [2] of 56.9 µM, a relative cell proliferation [9] of at most 50% and an IC50 [3] of 42.4 µM. For the same molecule, the “effect on N27 cell viability” value (N27 cells [4]) was “did not affect cell viability”, the “fold-increase in cell viability compared to 10 µM of the respective compound” value (N27 cells [4]) was 1.41 fold and the “fold-increase in cell viability compared to the control” value (N27 cells [4]) was 1.25 fold. The IC50 [5] was 19.5 µM, the “fold-decrease in cell viability compared to 6-OHDA alone” value (N27 cells [6]; 50 µM together with 50 µM 6-OHDA) was 0.9 fold and the “protection” value (N27 cells [6]) was “did not counteract; also recorded: no significant neuroprotection”. The IC50 [7] was 18.4 µM, the “effect on LNCaP cell proliferation” value ([10]; LNCaP, 10 µM) was “no relevant effects” and the “decrease in LNCaP cell proliferation” value ([10]; LNCaP, 50 µM) was “higher than 75%”. For the same molecule, the IC50 ([10]; MTT, tumoral cells, read-out: Estimated IC50, LNCaP) was 15.8 µM.
